In patent US11753408B2, “Compounds and method for blocking transmission of malarial parasite” (The United States of America, as represented by the …, priority 2016, dated 2023):
Read-outs that look alike come from different tables or passages of the source.

Tests used:
[1] = test system: Asexual parasites of P. falciparum strain 3D7; experiment: In vitro drug activity on asexual parasites (SYBR Green assay); format: cell-based, Plasmodium falciparum
Method: Cell culture. Asexual parasites of P. falciparum strain 3D7 were cultured as described previously [Trager W, et al., Journal of Parasitology 2005, 91: 484-486], Stage III-V gametocytes were selected and enriched with 3-day treatment with 50 mM N-acetylglucosamine (NAG) and the following Percoll density gradient centrifugation after gametocyte production [Tanaka T Q, et al., Molecular and Biochemical Parasitology, 2011, 111: 160-163], Gametocytes of HB3 and Dd2 strains were produced and then set up for assay in a similar process. HepG2 cells (ATCC, cat. no. 77400) were cultured in 175-cm^2 tissue culture flasks with 30 ml growth medium at 37° C. in a 5% CO2 humidified atmosphere. Growth medium was made with Dulbecco's Modified Eagle Medium with 10% fetal bovine serum (FBS). Growth medium was replaced every other day and cells were passed at 75% confluence.
Asexual parasites of P. falciparum strain 3D7 were cultured as described previously (Trager, W. et al., J. Parasitol. 2005, 91(3): 484-486). Drug activity on asexual stage parasites was tested using a SYBR Green assay as described previously (Eastman, R. T. et al., Antimicrob. Agents Chemother. 2013, 57(1): 425-435; Smilkstein, M. et al., Antimicrob. Agents Chemother. 2004, 48(5): 1803-1806). Briefly, parasites were diluted to 0.5% parasitemia in complete culture medium with 2% hematocrit and drugs diluted in DMSO (≤0.5%) and were loaded into a 96-well plate (200 μl/well). No drug and RBC alone wells were included as positive and background controls, respectively, and each testing condition was examined in duplicated. After 72 h incubation under the standard culture condition and a freeze-thaw lysis step at −80° C. and room temperature, 100 μl/well of lysis buffer containing SYBR Green I was added to the parasite culture and incubated for 30 min at room temperature. The fluorescence of each well was measured at 520 nm following excitation at 490 nm using a FLUOstar Optima™ microplate reader (BMG Labtech).

mTOR = mTOR (Homo sapiens, UniProt P42345); experiment: mTOR activity (no method described); format: biochemical
[2] = Microsomal stability (rat); format: in vitro ADME; conditions: rat microsomes
Solubility at pH 7.4 = format: physicochemical
[3] = P. falciparum 3D7 asexual parasites, 72 h, SYBR Green

EC50 [1] [µM] | mTOR (mTOR) [µM] | Microsomal Stability (rat) T1/2 [2] [min] | Sol @ pH 7.4 (Solubility at pH 7.4) [ug/mL] | EC50 [1, 3] [µM] | Compound
0.137 | 100 | – | – | – | O=C(NC1CC1)c1ccc(-n2c(=O)ccc3cnc4ccc(-c5ccc(Cl)cc5)cc4c32)cn1 [Compound 315]
0.0327 | 3.792 | – | – | – | CCN(CCN(C)C)C(=O)c1ccc(-n2c(=O)ccc3cnc4ccc(-c5ccc(Cl)cc5)cc4c32)cc1 [Compound 300]
0.348 | 3.254 | >30 | 0 | – | CN(C)CCN1CCN(C(=O)c2ccc(-n3c(=O)ccc4cnc5ccc(-c6ccc(C7(N)CC7)cc6)cc5c43)cc2)CC1 [Compound 270]
0.0192 | 0.8535 | – | – | – | N#CC1(NC(=O)c2ccc(-n3c(=O)ccc4cnc5ccc(-c6ccc(Cl)cc6)cc5c43)cc2)CC1 [Compound 304]
0.0829 | 30.38 | – | – | – | Cc1ccc(C#N)cc1-n1c(=O)n(C)c2cnc3ccc(-c4ccc[nH]4)cc3c21 [Compound 419]
0.0193 | 0.994 | >30 | 0 | – | O=C(NCCN1CCNCC1)c1ccc(-n2c(=O)ccc3cnc4ccc(-c5ccc(Cl)cc5)cc4c32)cc1 [Compound 98]
0.144 | 30.22 | – | – | – | Cc1ccc(C#N)cc1-n1c(=O)n(C)c2cnc3ccc(-c4cccn4C)cc3c21 [Compound 420]
0.0665 | 16 | – | – | – | COc1cc(C(=O)NCCCN(CCO)CCO)ccc1-n1c(=O)ccc2cnc3ccc(-c4ccc(Cl)cc4)cc3c21 [Compound 227]
0.0484 | 5 | – | – | – | Cc1ccc(C#N)cc1-n1c(=O)n(C)c2cnc3ccc(-c4ccoc4)cc3c21 [Compound 425]
0.39 | 3.874 | >30 | 0 | – | NC1(c2ccc(-c3ccc4ncc5ccc(=O)n(-c6ccc(C(=O)N7CCN(CCO)CC7)cc6)c5c4c3)cc2)CC1 [Compound 269]
0.132 | 2.064 | 1.9 | 0 | – | O=C(NCCN1CCCCC1)c1ccc(-n2c(=O)ccc3cnc4ccc(-c5ccc(Cl)cc5)cc4c32)cc1 [Compound 265]
0.0242 | 0.6559 | 2.6 | 0 | – | O=C(NCCCN(CCO)CCO)c1ccc(-n2c(=O)ccc3cnc4ccc(-c5ccc(Cl)cc5)cc4c32)cc1 [Compound 259]
0.232 | 19.25 | – | – | – | COc1cc(C(=O)NCCCN2CCCCC2)ccc1-n1c(=O)ccc2cnc3ccc(-c4ccc(Cl)cc4)cc3c21 [Compound 229]
0.0189 | 4.164 | >30 | <1 | – | COc1cc(C(=O)NC2CC2)ccc1-n1c(=O)ccc2cnc3ccc(-c4ccc(Cl)c(O)c4)cc3c21 [Compound 273]
0.191 | 39.9 | – | – | – | CN1CCN(Cc2ccc(-c3ccc4ncc5ccc(=O)n(-c6ccc(C(=O)NC7CC7)cc6)c5c4c3)cc2)CC1 [Compound 307]
0.613 | 16.14 | 14 | 0 | – | N#Cc1cc(-n2c(=O)ccc3cnc4ccc(-c5ccc(Cl)cc5)cc4c32)ccc1C(=O)N1CCOCC1 [Compound 271]
0.0585 | 4.622 | – | – | – | Cc1cc(NCCN(C)C)c(C#N)cc1-n1c(=O)n(C)c2cnc3ccc(-c4cccc(C#N)c4)cc3c21 [Compound 430]
0.0294 | 6.418 | – | – | – | Cc1cc(N2CC(N)C2)c(C#N)cc1-n1c(=O)n(C)c2cnc3ccc(-c4cccc(C#N)c4)cc3c21 [Compound 426]
– | – | – | – | 0.0623 | NC1(c2ccc(-c3ccc4ncc5ccc(=O)n(-c6ccc7c(c6)CNS7(=O)=O)c5c4c3)cc2)CC1 [Compound 383]
0.0553 | 5.83 | – | – | – | CN(C)CCN(C)C(=O)c1ccc(-n2c(=O)ccc3cnc4ccc(-c5ccc(Cl)cc5)cc4c32)cc1 [Compound 299]
0.483 | 4.727 | – | – | – | CCC(=O)N(CC)CCNC(=O)c1ccc(-n2c(=O)ccc3cnc4ccc(-c5ccc(Cl)cc5)cc4c32)cc1 [Compound 305]
0.0278 | 11 | – | – | – | Cc1cc(N2CC(N)C2)c(C#N)cc1-n1c(=O)n(C)c2cnc3ccc(-c4ccc(F)cc4)cc3c21 [Compound 428]
0.195 | 11.22 | – | – | – | CCN(CC)CCCNC(=O)c1ccc(-n2c(=O)ccc3cnc4ccc(-c5ccc(Cl)cc5)cc4c32)c(OC)c1 [Compound 228]

EC50 [1] [µM] | mTOR (mTOR) [µM] | Microsomal Stability (rat) T1/2 [2] [min] | Sol @ pH 7.4 (Solubility at pH 7.4) [ug/mL] | EC50 [1, 3] [µM] | Compound
0.00587 | 1.87 | – | – | – | CC(=O)N1CCN(c2cc(C)c(-n3c(=O)n(C)c4cnc5ccc(-c6ccc(F)cc6)cc5c43)cc2C#N)CC1 [Compound 422]
0.0105 | 12.57 | – | – | – | CC(=O)N1CCN(c2cc(C)c(-n3c(=O)n(C)c4cnc5ccc(-c6ccc(Cl)cc6)cc5c43)cc2C#N)CC1 [Compound 429]
0.0982 | 50 | – | – | – | COc1cc(C(=O)NCCCN(C)C)ccc1-n1c(=O)ccc2cnc3ccc(-c4ccc(Cl)cc4)cc3c21 [Compound 230]
0.0189 | 18.94 | – | – | – | Cc1cc(N2CCNCC2)c(C#N)cc1-n1c(=O)n(C)c2cnc3ccc(-c4cccs4)cc3c21 [Compound 421]
0.0504 | 15.4 | – | – | – | CC(=O)N1CCN(c2cc(C)c(-n3c(=O)n(C)c4cnc5ccc(-c6cccc(C#N)c6)cc5c43)cc2C#N)CC1 [Compound 423]
0.554 | 3.824 | – | – | – | O=C(NCCN1CCCC1=O)c1ccc(-n2c(=O)ccc3cnc4ccc(-c5ccc(Cl)cc5)cc4c32)cc1 [Compound 309]
0.0533 | 0.1982 | – | – | – | CC(C)(O)CNC(=O)c1ccc(-n2c(=O)ccc3cnc4ccc(-c5ccc(Cl)cc5)cc4c32)cc1 [Compound 311]
– | – | – | – | 1.32 | O=C1c2ccc(-n3c(=O)ccc4cnc5ccc(-c6ccc(Cl)cc6)cc5c43)cc2C(=O)N1C1CC1 [Compound 384]
0.00793 | 0.7002 | – | – | – | Cn1c(=O)n(-c2ccc(N3CCNCC3)c(C#N)c2)c2c3cc(-c4cccc(C#N)c4)ccc3ncc21 [Compound 418]
0.202 | 8.572 | – | – | – | COc1cc(C(=O)NCCN(C)C)ccc1-n1c(=O)ccc2cnc3ccc(-c4ccc(Cl)cc4)cc3c21 [Compound 317]
0.208 | 8.446 | – | – | – | COc1cc(C(=O)NCCCN2CCS(=O)(=O)CC2)ccc1-n1c(=O)ccc2cnc3ccc(-c4ccc(Cl)cc4)cc3c21 [Compound 226]
1.85 | 500 | – | – | – | N#Cc1cc(-n2c(=O)ccc3cnc4ccc(-c5ccc(Cl)cc5)cc4c32)ccc1C(=O)NC1CC1 [Compound 312]
0.1 | 8.864 | – | – | – | O=C(NCCC1CCN(C2COC2)CC1)c1ccc(-n2c(=O)ccc3cnc4ccc(-c5ccc(Cl)cc5)cc4c32)cc1 [Compound 306]
– | 100 | – | – | – | COc1cc(C(=O)NCCN2CCN(C)CC2)ccc1-n1c(=O)ccc2cnc3ccc(-c4ccc(Cl)cc4)cc3c21 [Compound 252]
0.414 | 3.373 | – | – | – | CCC(=O)N(C)CCNC(=O)c1ccc(-n2c(=O)ccc3cnc4ccc(-c5ccc(Cl)cc5)cc4c32)cc1 [Compound 310]
0.429 | 0.78 | – | – | – | Nc1nc2ccc(-c3ccc(Cl)cc3)cc2c2c1ccc(=O)n2-c1ccc(C(=O)N2CCOCC2)cc1 [Compound 314]
0.023 | 12.51 | – | – | – | Cc1ccc(C#N)cc1-n1c(=O)n(C)c2cnc3ccc(-c4ccsc4)cc3c21 [Compound 424]
0.0171 | 6.1 | – | – | – | Cc1ccc(C#N)cc1-n1c(=O)n(C)c2cnc3ccc(-c4cccc(S(N)(=O)=O)c4)cc3c21 [Compound 433]
0.412 | 8.154 | – | – | – | COc1cc(C(=O)NCCN(C)C)ccc1-n1c(=O)ccc2cnc3ccc(-c4ccc(F)c(O)c4)cc3c21 [Compound 316]
0.0236 | 2.099 | – | – | – | O=C(NC1CC1)c1ccc(-n2c(=O)ccc3cnc4ccc(-c5ccc(Cl)c(F)c5)cc4c32)cc1 [Compound 308]
0.0752 | 30.6 | – | – | – | Cc1cc(N2CCNCC2)c(C#N)cc1-n1c(=O)n(C)c2cnc3ccc(-c4ccc(F)c(C#N)c4)cc3c21 [Compound 427]
0.039 | 1.429 | – | – | – | Cc1cc(C(=O)NCCN2CCNCC2)ccc1-n1c(=O)ccc2cnc3ccc(-c4ccc(Cl)cc4)cc3c21 [Compound 313]
